Measurements as given in patent US20180346446A1, “IRE1 SMALL MOLECULE INHIBITORS” (QUENTIS THERAPEUTICS, INC., priority 2017, published 2018).
Counter-ions that a name gives are not always drawn.

Key:
hERG channel = target: T1, hERG channel (Homo sapiens, UniProt Q12809); assay: hERG potassium ion channel automated planar clamp (QPatch); type: cell-based; conditions: hERG channel expressed in a stable CHO cell line, read-out: hERG channel blockade Mean IC50
T1 construct: expressed in transfected cells
Protocol: Blockade of the cardiac ion channel coded by the hERG gene can lead to cardiac arrhythmia. […] To determine the viability of the compounds disclosed herein as pharmacological agents that would not affect the hERG channel blockade, a standard automated planar clamp method was employed to determine the IC50 for various test compounds on their inhibition of the channel. An electrophysiological assay was prepared to measure the electric current passing through the hERG channel expressed in a stable CHO cell line by applying the planar clamp method. This assay was performed using the automated QPatch platform (Sophion, Denmark) which allows fast and accurate electrophysiological characterization of the hERG ion channel and the determination of IC50 values for the test compounds, as shown in Table 9.

IRE1a [1] = target: T2, IRE1a (Homo sapiens, UniProt O75460); assay: IRE1a Endoribonuclease Nanoluciferase Assay (XBP1 luciferase reporter in 293T cells); type: cell-based; conditions: 293T cells transfected with XBP1 luciferase reporter, ER stressors +/- inhibitors
Summary of the method: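 293T cells were transfected with a PGK-Luc2-P2A-XBP1u-nanoluciferase-PEST reporter and plated in 96-well format. A day later they were treated with ER stressors with or without inhibitors. Lysates were read for luminescence with OneGlo, then again after Stop and Glo.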

IRE1a [2] = target: T2, IRE1a; assay: In vitro FRET assay (XBP1 RNA probe cleavage by IRE1a); type: biochemical; design: purchased SignalChem; conditions: 2 nM IRE1a protein
293T cells = assay: Growth assay (cytotoxicity); type: cell-based; conditions: 2 day incubation
Protocol: A growth assay was performed to evaluate the compounds disclosed herein for cytotoxicity. Briefly, 5,000,000 293T cells were resuspended in 18 mL of cDMEM for a final concentration of 277,777 cells/mL. […] In a separate 96 well dilution plate, 199 uL cDMEM and 1 uL of DMSO or any one of the compounds disclosed herein (shown as Test Compound 1, 2, 3, 4, 5, or 6 below) were added to wells A4, A8, C4, C8, E4, E8, G4, and G8. 133.3 uL cDMEM was added to wells 1, 2, 3, 5, 6, and 7 in rows A, C, E and G of the dilution plate. Compounds were serially diluted leftwards in threefold dilutions (66.7 uL into 133.3 uL cDMEM). 20 uL of each dilution was transferred in duplicate (duplicates in vertical paired wells) to the cells plated in the 96-well plate shown in Table 5, to the total concentrations shown below. 200 uL cDMEM was added to media wells (wells G5-H8). The plate was then placed in a humidified chamber for a 2 day incubation, and then photographed (media was more yellow in wells with potent cell growth). Absorbance was then measured at about […] (lower for more acidic media) and about […] (higher for more acidic media).

[3] = Microsome stability assay, human liver microsomes; type: in vitro ADME; conditions: formic acid salt
Protocol: (§1) The formic acid salt of Compound 3 was tested under the microsome stability assay outlined below. Test compounds were incubated at 37° C. with liver microsomes (pooled from multiple donors) at […] in the presence of a NADPH regenerating system at 0.5 mg/ml microsomal protein. Positive controls included Testosterone (3A4 substrate), Propafenone (2D6) and Diclofenac (2C9), which were incubated with microsomes in the presence of an NADPH regenerating system. At time points (0, 5, 10, 20, 30 and 60 minutes), samples were removed and immediately mixed with cold acetonitrile containing internal standard (IS). Test compounds incubated with microsomes without the NADPH regenerating system for 60 min was also included. A single point for each test condition (n=1) was obtained, and samples were analyzed by LC/MS/MS. Disappearance of the test compound was assessed based on peak area ratios of analyte/IS (no standard curve).

[4] = tested on: IRE1a-mediated XBP1 splicing; assay: Inhibition of IRE1a signaling in cell types of the tumor microenvironment (metastatic ovarian cancer mice); type: in vivo; conditions: mice with metastatic ovarian cancer, 11 mg/kg, 12 hours, tumor cells, DC, CD4+ and CD8+ T cells from ascites
Protocol: A syngeneic mouse model for metastatic, orthotopic ovarian cancer was used to analyze the in vivo effects of compounds described herein. Assay conditions were similar to those described in Example 11, administering compound 3 for comparison against controls. […] After 12 hours, the ascites were drained and FACS was used to purify the cells into four populations: tumor cells, dendritic cells (DC), CD4+ T cells, and CD8+ T cells. Then, PCR and qPCR was used to quantify spliced Xbp1 transcripts and total Xbp1 transcripts. […] Compound 3 can therefore inhibit IRE1a-mediated XBP1 splicing in vivo in tumor cells and key immune cell types found within the tumor microenvironment.

[5] = Microsome stability assay, mouse liver microsomes; type: in vitro ADME; conditions: formic acid salt
Protocol: as §1

[6] = tested on: IRE1a-mediated XBP1 splicing; assay: Suppression of XBP1 splicing in liver of tunicamycin-injected mice; type: in vivo; conditions: 0.25 mg/kg tunicamycin, 10 mg/kg compound intraperitoneal, 4 hours, RT-qPCR
Protocol: Mice were injected with 0.25 mg/kg tunicamycin dissolved in DMSO: PBS at a ratio of 1:3. After 2 hours, the mice were injected with 10 mg/kg of Compound 3 dissolved in water or water alone as a vehicle control. After an additional 4 hours, the animals were euthanized, livers dissected out, and 2-3 mm^3 liver pieces are flash frozen on dry ice. Liver pieces were then thawed in Trizol on ice, homogenized for 3 minutes with a bead mill at medium-high speed. RNA was then extracted from the Trizol solution according to the manufacturer's recommendation. Gene expression analysis was also performed via Reverse Transcription quantitative PCR (RT-qPCR) using a Stratagene Mx3005 instrument and SYBR green I (Life Technologies). Gene expression was measured of the spliced Xbp1s transcript, a primer set measuring all Xbp1 transcripts, Xbp1s target genes including Sec24d and general ER stress response markers Hspa5 (BiP) and Ddit3 (CHOP).

T2 sequence (O75460 19-977): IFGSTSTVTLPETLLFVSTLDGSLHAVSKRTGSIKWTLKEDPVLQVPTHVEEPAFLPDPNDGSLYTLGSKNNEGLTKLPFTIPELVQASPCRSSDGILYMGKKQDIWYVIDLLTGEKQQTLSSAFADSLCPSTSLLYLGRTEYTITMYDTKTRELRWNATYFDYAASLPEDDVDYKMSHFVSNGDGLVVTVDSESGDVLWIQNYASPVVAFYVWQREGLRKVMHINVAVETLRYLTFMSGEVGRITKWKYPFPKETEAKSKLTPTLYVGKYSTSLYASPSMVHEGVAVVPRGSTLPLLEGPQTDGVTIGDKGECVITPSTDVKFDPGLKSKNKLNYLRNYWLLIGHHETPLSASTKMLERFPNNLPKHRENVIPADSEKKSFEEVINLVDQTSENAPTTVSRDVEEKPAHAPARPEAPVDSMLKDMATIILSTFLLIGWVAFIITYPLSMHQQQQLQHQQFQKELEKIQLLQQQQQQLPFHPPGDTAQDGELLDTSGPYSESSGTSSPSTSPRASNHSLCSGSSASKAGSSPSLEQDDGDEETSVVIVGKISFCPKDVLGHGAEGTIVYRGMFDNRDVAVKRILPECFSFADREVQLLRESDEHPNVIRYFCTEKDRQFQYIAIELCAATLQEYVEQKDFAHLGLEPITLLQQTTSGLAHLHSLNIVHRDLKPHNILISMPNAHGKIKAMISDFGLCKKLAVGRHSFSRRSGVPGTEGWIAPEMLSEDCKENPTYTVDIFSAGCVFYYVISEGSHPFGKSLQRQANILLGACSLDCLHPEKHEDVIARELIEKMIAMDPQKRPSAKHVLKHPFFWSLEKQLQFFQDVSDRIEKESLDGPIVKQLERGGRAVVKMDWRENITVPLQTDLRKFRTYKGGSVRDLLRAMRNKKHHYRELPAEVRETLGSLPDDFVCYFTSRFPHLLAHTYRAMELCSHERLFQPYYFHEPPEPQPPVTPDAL
T1 sequence (Q12809 whole entry): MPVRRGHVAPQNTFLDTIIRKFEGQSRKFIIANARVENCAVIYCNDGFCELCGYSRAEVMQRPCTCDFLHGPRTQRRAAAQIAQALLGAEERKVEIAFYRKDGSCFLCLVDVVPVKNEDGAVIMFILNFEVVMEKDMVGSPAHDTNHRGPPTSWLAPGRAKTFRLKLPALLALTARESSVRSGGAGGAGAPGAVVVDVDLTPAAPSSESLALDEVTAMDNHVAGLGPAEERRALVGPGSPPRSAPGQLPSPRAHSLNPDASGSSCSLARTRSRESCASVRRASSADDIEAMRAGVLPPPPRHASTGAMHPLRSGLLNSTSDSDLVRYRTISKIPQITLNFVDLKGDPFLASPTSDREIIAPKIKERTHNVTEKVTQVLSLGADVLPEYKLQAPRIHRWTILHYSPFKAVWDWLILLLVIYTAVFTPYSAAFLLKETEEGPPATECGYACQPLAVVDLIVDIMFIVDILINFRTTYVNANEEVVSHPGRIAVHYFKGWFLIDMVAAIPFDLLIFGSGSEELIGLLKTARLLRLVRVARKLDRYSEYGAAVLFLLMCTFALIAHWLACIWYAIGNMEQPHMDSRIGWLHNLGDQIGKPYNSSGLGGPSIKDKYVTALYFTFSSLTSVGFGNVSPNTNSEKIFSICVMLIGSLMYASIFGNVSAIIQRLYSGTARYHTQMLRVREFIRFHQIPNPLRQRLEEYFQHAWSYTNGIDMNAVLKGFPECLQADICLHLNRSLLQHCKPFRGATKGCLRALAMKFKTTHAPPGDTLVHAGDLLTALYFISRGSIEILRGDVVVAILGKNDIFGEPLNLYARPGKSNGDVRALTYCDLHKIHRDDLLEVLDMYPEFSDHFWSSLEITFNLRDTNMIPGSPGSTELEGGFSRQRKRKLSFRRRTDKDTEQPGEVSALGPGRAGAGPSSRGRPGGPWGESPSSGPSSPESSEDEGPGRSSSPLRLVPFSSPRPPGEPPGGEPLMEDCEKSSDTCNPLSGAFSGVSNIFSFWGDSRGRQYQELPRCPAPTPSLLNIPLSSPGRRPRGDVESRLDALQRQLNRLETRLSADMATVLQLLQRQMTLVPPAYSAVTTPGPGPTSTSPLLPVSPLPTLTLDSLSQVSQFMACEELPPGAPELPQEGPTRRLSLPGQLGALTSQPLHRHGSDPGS

`CCc1cc(-c2ccc(NS(=O)(=O)c3ccccc3Cl)cc2C)cc2cnc(N[C@H]3CC[C@H](N)CC3)nc12.O=CO` [3; Formic Acid] showed an IC50 (hERG channel) of 10000 to 50000 nM, an EC50 (IRE1a [1]) of 5 to 50 nM and an IC50 (IRE1a [2]) of at most 5 nM. For the same compound, the “% Growth at 0.185 uM” value (293T cells) was “D (D: >75% to ≤100%)”, the “% Growth at 0.5556 uM” value (293T cells) was “D (D: >75% to ≤100%)” and the “% Growth at 1.667 uM” value (293T cells) was “C (C: >50% to ≤75%)”. The “% Growth at 5 uM” value (293T cells) was “A (A: ≤25%)”.
Work on `CCc1cc(-c2ccc(NS(=O)(=O)c3ccccc3Cl)nc2C)cc2cnc(N[C@H]3CC[C@H](N)CC3)nc12.O=CO` [16; Formic Acid] yielded an IC50 (hERG channel) of 10000 to 50000 nM, an EC50 (IRE1a [1]) of at most 5 nM and an IC50 (IRE1a [2]) of at most 5 nM. The “% Growth at 0.185 uM” value (293T cells) was “D (D: >75% to ≤100%)”, the “% Growth at 0.5556 uM” value (293T cells) was “D (D: >75% to ≤100%)” and the “% Growth at 1.667 uM” value (293T cells) was “D (D: >75% to ≤100%)”. The “% Growth at 5 uM” value (293T cells) was “B (B: >25% to ≤50%)”.
Work on `CCc1cc(-c2ccc(NS(=O)(=O)c3ccccc3Cl)c(F)c2)cc2cnc(N[C@H]3CC[C@H](N)CC3)nc12.O=CO` [24; Formic Acid] yielded an IC50 (hERG channel) of 1000 to 10000 nM, an EC50 (IRE1a [1]) of at most 5 nM and an IC50 (IRE1a [2]) of at most 5 nM. For the same compound, the “% Growth at 0.185 uM” value (293T cells) was “D (D: >75% to ≤100%)”, the “% Growth at 0.5556 uM” value (293T cells) was “D (D: >75% to ≤100%)” and the “% Growth at 1.667 uM” value (293T cells) was “C (C: >50% to ≤75%)”. For the same compound, the “% Growth at 5 uM” value (293T cells) was “C (C: >50% to ≤75%)”.
In the case of `CCc1cc(-c2ccc(NS(=O)(=O)c3ccccc3Cl)nc2OC)cc2cnc(N[C@H]3CC[C@H](N)CC3)nc12` [37; HCl ^], the IC50 (hERG channel) is reported as 10000 to 50000 nM, the EC50 (IRE1a [1]) is reported as at most 5 nM and the IC50 (IRE1a [2]) is reported as at most 5 nM. For the same compound, the “% Growth at 0.5556 uM” value (293T cells) was “D (D: >75% to ≤100%)”, the “% Growth at 1.667 uM” value (293T cells) was “C (C: >50% to ≤75%)” and the “% Growth at 5 uM” value (293T cells) was “B (B: >25% to ≤50%)”.
With `CCc1cc(-c2ncc(NS(=O)(=O)c3ccccc3Cl)cc2F)cc2cnc(N[C@H]3CC[C@H](N)CC3)nc12.O=CO` [52; Formic Acid] the EC50 (IRE1a [1]) was at most 5 nM, the IC50 (IRE1a [2]) was at most 5 nM and the “% Growth at 0.185 uM” value (293T cells) was “D (D: >75% to ≤100%)”. The “% Growth at 0.5556 uM” value (293T cells) was “D (D: >75% to ≤100%)”, the “% Growth at 1.667 uM” value (293T cells) was “D (D: >75% to ≤100%)” and the “% Growth at 5 uM” value (293T cells) was “C (C: >50% to ≤75%)”.
For `CCc1cc(-c2cnc(NS(=O)(=O)c3ccccc3Cl)c(F)c2)cc2cnc(N[C@H]3CC[C@H](N)CC3)nc12.O=CO` [55; Formic Acid], the EC50 (IRE1a [1]) was at most 5 nM, the IC50 (IRE1a [2]) was at most 5 nM and the “% Growth at 0.185 uM” value (293T cells) was “D (D: >75% to ≤100%)”. The “% Growth at 0.5556 uM” value (293T cells) was “D (D: >75% to ≤100%)”, the “% Growth at 1.667 uM” value (293T cells) was “D (D: >75% to ≤100%)” and the “% Growth at 5 uM” value (293T cells) was “D (D: >75% to ≤100%)”.
For `CCc1cc(-c2nnc(NS(=O)(=O)c3ccccc3Cl)cc2OC)cc2cnc(N[C@H]3CC[C@H](N)CC3)nc12.O=CO` [65; Formic Acid], the EC50 (IRE1a [1]) was 5 to 50 nM, the IC50 (IRE1a [2]) was at most 5 nM and the “% Growth at 0.185 uM” value (293T cells) was “D (D: >75% to ≤100%)”. For the same compound, the “% Growth at 0.5556 uM” value (293T cells) was “D (D: >75% to ≤100%)”, the “% Growth at 1.667 uM” value (293T cells) was “D (D: >75% to ≤100%)” and the “% Growth at 5 uM” value (293T cells) was “C (C: >50% to ≤75%)”.
For `CCc1cc(-c2nnc(NS(=O)(=O)c3ccccc3Cl)cc2C)cc2cnc(N[C@H]3CC[C@H](N)CC3)nc12.O=CO` [67; Formic Acid], the EC50 (IRE1a [1]) was 5 to 50 nM, the IC50 (IRE1a [2]) was at most 5 nM and the “% Growth at 0.185 uM” value (293T cells) was “D (D: >75% to ≤100%)”. For the same compound, the “% Growth at 0.5556 uM” value (293T cells) was “D (D: >75% to ≤100%)”, the “% Growth at 1.667 uM” value (293T cells) was “C (C: >50% to ≤75%)” and the “% Growth at 5 uM” value (293T cells) was “C (C: >50% to ≤75%)”.
In the case of `CCc1cc(-c2ccc(NS(=O)(=O)c3ccccc3Cl)c(F)c2)cc2cnc(N[C@H]3CC[C@H](N(C)C)CC3)nc12.O=CO` [69; Formic Acid], the IC50 (hERG channel) is reported as 10000 to 50000 nM, the EC50 (IRE1a [1]) is reported as at most 5 nM and the IC50 (IRE1a [2]) is reported as at most 5 nM. The “% Growth at 0.5556 uM” value (293T cells) was “D (D: >75% to ≤100%)”, the “% Growth at 1.667 uM” value (293T cells) was “C (C: >50% to ≤75%)” and the “% Growth at 5 uM” value (293T cells) was “C (C: >50% to ≤75%)”.
With `CCc1cc(-c2ccc(NS(=O)(=O)c3ccccc3Cl)c(F)c2C)cc2cnc(N[C@H]3CC[C@H](N)CC3)nc12.O=CO` [71; Formic Acid] the EC50 (IRE1a [1]) was at most 5 nM, the IC50 (IRE1a [2]) was at most 5 nM and the “% Growth at 0.185 uM” value (293T cells) was “D (D: >75% to ≤100%)”. The “% Growth at 0.5556 uM” value (293T cells) was “D (D: >75% to ≤100%)”, the “% Growth at 1.667 uM” value (293T cells) was “C (C: >50% to ≤75%)” and the “% Growth at 5 uM” value (293T cells) was “B (B: >25% to ≤50%)”.
In the case of `CCc1cc(-c2ccc(NS(=O)(=O)c3ccccc3Cl)cc2C)cc2cnc(N[C@H]3CC[C@H](N)CC3)nc12` [Compound 3, N-(4-(2-(((1r,4r)-4-aminocyclohexyl)amino)-8-ethylquinazolin-6-yl)-3-methylphenyl)-2-chlorobenzenesulfonamide], the “HLM Remaining at 60 min” value ([3]; 60 min) is reported as 44%, the “Human CI” value ([3]; human liver microsomes, 37° C., NADPH regenerating system) is reported as 29.2 µL/min/mg and the half-life at 1 NM ([3]; human, liver microsomes (pooled from multiple donors), 37° C., 0.5 mg/ml microsomal protein, NADPH regenerating system, read-out: Human Liver Microsome (HLM) T1/2) is reported as 47.5 min. The “splicing ratio of XBP1 (spliced Xbp1 transcripts divided by total Xbp1 transcripts) compared to vehicle-treated mice” value [4] was “markedly reduced”, the “Mouse Liver Microsome CI” value ([5]; 37° C., NADPH regenerating system) was 31.9 µL/min/mg and the “Mouse Liver Microsome Remaining at 60 min” value ([5]; 60 min) was 41%. The half-life at 1 NM ([5]; mouse, liver microsomes (pooled from multiple donors), 37° C., 0.5 mg/ml microsomal protein, NADPH regenerating system, read-out: Mouse Liver Microsome T1/2) was 43.5 min and the “suppression of IRE1a-mediated XBP1 splicing in vivo” value [6] was “potently suppresses”.
